Results from US9546156B2, “N-bicyclic aryl,N'-pyrazolyl urea, thiourea, guanidine cyanoguanidine compounds as TrkA kinase inhibitors” (Array BioPharma Inc., priority 2012, dated 2017).

How the values were obtained:
Assay in all cases: Off-target kinase profiling (KinaseProfiler)
Format in all cases: biochemical
Settings in all cases: 10 μM, ATP near Km
[1] = molecular target: T1, MYLK (Homo sapiens, UniProt Q15746)
T1 construct: purchased Millipore, Inc. (KinaseProfiler service)
Method in brief: (§1)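 10 μM test compound; ATP ≈ Km per kinase; n=2; readout = POC (mean of replicates).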

[2] = molecular target: T2, PKCbetaI (Homo sapiens, UniProt P05771)
T2 construct: purchased Millipore, Inc. (KinaseProfiler service)
Method in brief: as §1

[3] = molecular target: T3, CAMK2d (Homo sapiens, UniProt Q13557)
T3 construct: purchased Millipore, Inc. (KinaseProfiler service)
Method in brief: as §1

[4] = molecular target: T4, EGFR (Homo sapiens, UniProt P00533)
T4 construct: purchased Millipore, Inc. (KinaseProfiler service)
Method in brief: as §1

[5] = molecular target: T5, CK1gamma1 (Homo sapiens, UniProt Q9HCP0)
T5 construct: purchased Millipore, Inc. (KinaseProfiler service)
Method in brief: as §1

[6] = molecular target: T6, LKB1 (Homo sapiens, UniProt Q15831)
T6 construct: purchased Millipore, Inc. (KinaseProfiler service)
Method in brief: as §1

[7] = molecular target: T7, ULK3 (Homo sapiens, UniProt Q6PHR2)
T7 construct: purchased Millipore, Inc. (KinaseProfiler service)
Method in brief: as §1

[8] = molecular target: T8, CAMK2g (Homo sapiens, UniProt Q13555)
T8 construct: purchased Millipore, Inc. (KinaseProfiler service)
Method in brief: as §1

[9] = molecular target: T9, p38beta (Homo sapiens, UniProt Q15759)
T9 construct: purchased Millipore, Inc. (KinaseProfiler service)
Method in brief: as §1

[10] = molecular target: T10, Rsk4 (Homo sapiens, UniProt Q9UK32)
T10 construct: purchased Millipore, Inc. (KinaseProfiler service)
Method in brief: as §1

[11] = molecular target: T11, Tie2 (Homo sapiens, UniProt Q02763)
T11 construct: purchased Millipore, Inc. (KinaseProfiler service)
Method in brief: as §1

[12] = molecular target: T12, CAMK2b (Homo sapiens, UniProt Q13554)
T12 construct: purchased Millipore, Inc. (KinaseProfiler service)
Method in brief: as §1

[13] = molecular target: T13, MKK4_m (Mus musculus, UniProt P47809)
T13 construct: purchased Millipore, Inc. (KinaseProfiler service)
Method in brief: as §1

[14] = molecular target: T14, MSSK1 (Homo sapiens, UniProt Q9UPE1)
T14 construct: purchased Millipore, Inc. (KinaseProfiler service)
Method in brief: as §1

[15] = molecular target: T15, DRAK1 (Homo sapiens, UniProt Q9UEE5)
T15 construct: purchased Millipore, Inc. (KinaseProfiler service)
Method in brief: as §1

[16] = molecular target: T16, PKCzeta (Homo sapiens, UniProt Q05513)
T16 construct: purchased Millipore, Inc. (KinaseProfiler service)
Method in brief: as §1

[17] = molecular target: T17, CDK9/cyclinT1 (Homo sapiens, UniProt P50750)
T17 construct: purchased Millipore, Inc. (KinaseProfiler service)
Method in brief: as §1

[18] = molecular target: T18, CDK5/p35 (Homo sapiens, UniProt Q00535)
T18 construct: purchased Millipore, Inc. (KinaseProfiler service)
Method in brief: as §1

[19] = molecular target: T19, TEC Activated (Homo sapiens, UniProt P42680)
T19 construct: purchased Millipore, Inc. (KinaseProfiler service)
Method in brief: as §1

[20] = molecular target: T20, LOK (Homo sapiens, UniProt O94804)
T20 construct: purchased Millipore, Inc. (KinaseProfiler service)
Method in brief: as §1

[21] = molecular target: T21, MAPKAP-K2 (Homo sapiens, UniProt P49137)
T21 construct: purchased Millipore, Inc. (KinaseProfiler service)
Method in brief: as §1

[22] = molecular target: T22, STK33 (Homo sapiens, UniProt Q9BYT3)
T22 construct: purchased Millipore, Inc. (KinaseProfiler service)
Method in brief: as §1

[23] = molecular target: T23, Lyn (Homo sapiens, UniProt P07948)
T23 construct: purchased Millipore, Inc. (KinaseProfiler service)
Method in brief: as §1

[24] = molecular target: T24, MAP3K5 (Homo sapiens, UniProt Q99683)
T24 construct: purchased Millipore, Inc. (KinaseProfiler service)
Method in brief: as §1

[25] = molecular target: T25, ALK4 (Homo sapiens, UniProt P36896)
T25 construct: purchased Millipore, Inc. (KinaseProfiler service)
Method in brief: as §1

[26] = molecular target: T26, PAK4 (Homo sapiens, UniProt O96013)
T26 construct: purchased Millipore, Inc. (KinaseProfiler service)
Method in brief: as §1

[27] = molecular target: T27, TAK1 (Homo sapiens, UniProt O43318)
T27 construct: purchased Millipore, Inc. (KinaseProfiler service)
Method in brief: as §1

[28] = molecular target: T28, HIPK3 (Homo sapiens, UniProt Q9H422)
T28 construct: purchased Millipore, Inc. (KinaseProfiler service)
Method in brief: as §1

[29] = molecular target: T29, HIPK1 (Homo sapiens, UniProt Q86Z02)
T29 construct: purchased Millipore, Inc. (KinaseProfiler service)
Method in brief: as §1

[30] = molecular target: T30, PRKG1alpha (Homo sapiens, UniProt Q13976)
T30 construct: purchased Millipore, Inc. (KinaseProfiler service)
Method in brief: as §1

[31] = molecular target: T31, Abl2 (Homo sapiens, UniProt P42684)
T31 construct: purchased Millipore, Inc. (KinaseProfiler service)
Method in brief: as §1

[32] = molecular target: T32, TSSK2 (Homo sapiens, UniProt Q96PF2)
T32 construct: purchased Millipore, Inc. (KinaseProfiler service)
Method in brief: as §1

[33] = molecular target: T33, AKT1 (Homo sapiens, UniProt P31749)
T33 construct: purchased Millipore, Inc. (KinaseProfiler service)
Method in brief: as §1

[34] = molecular target: T34, KDR (Homo sapiens, UniProt P35968)
T34 construct: purchased Millipore, Inc. (KinaseProfiler service)
Method in brief: as §1

[35] = molecular target: T35, EphB1 (Homo sapiens, UniProt P54762)
T35 construct: purchased Millipore, Inc. (KinaseProfiler service)
Method in brief: as §1

[36] = molecular target: T36, c-RAF (Homo sapiens, UniProt P04049, Y340D/Y341D)
T36 construct: purchased Millipore, Inc. (KinaseProfiler service)
Method in brief: as §1

[37] = molecular target: T37, eEF-2K (Homo sapiens, UniProt O00418)
T37 construct: purchased Millipore, Inc. (KinaseProfiler service)
Method in brief: as §1

[38] = molecular target: T38, Ros (Homo sapiens, UniProt P08922)
T38 construct: purchased Millipore, Inc. (KinaseProfiler service)
Method in brief: as §1

[39] = molecular target: T39, DDR2 (Homo sapiens, UniProt Q16832)
T39 construct: purchased Millipore, Inc. (KinaseProfiler service)
Method in brief: as §1

[40] = molecular target: T40, ERK2 (Homo sapiens, UniProt P28482)
T40 construct: purchased Millipore, Inc. (KinaseProfiler service)
Method in brief: as §1

[41] = molecular target: T41, GRK7 (Homo sapiens, UniProt Q8WTQ7)
T41 construct: purchased Millipore, Inc. (KinaseProfiler service)
Method in brief: as §1

T9 sequence (Q15759 whole entry): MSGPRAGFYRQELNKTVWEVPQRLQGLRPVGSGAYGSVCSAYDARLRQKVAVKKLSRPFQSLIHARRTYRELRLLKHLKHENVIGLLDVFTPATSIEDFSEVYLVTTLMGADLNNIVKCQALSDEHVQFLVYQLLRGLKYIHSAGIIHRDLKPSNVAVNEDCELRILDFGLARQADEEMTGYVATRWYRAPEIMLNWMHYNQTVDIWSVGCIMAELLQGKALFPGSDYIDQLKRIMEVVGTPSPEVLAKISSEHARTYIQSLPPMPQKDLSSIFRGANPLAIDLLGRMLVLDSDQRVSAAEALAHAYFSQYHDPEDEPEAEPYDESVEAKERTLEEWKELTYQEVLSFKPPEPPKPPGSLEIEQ
T18 sequence (Q00535 whole entry): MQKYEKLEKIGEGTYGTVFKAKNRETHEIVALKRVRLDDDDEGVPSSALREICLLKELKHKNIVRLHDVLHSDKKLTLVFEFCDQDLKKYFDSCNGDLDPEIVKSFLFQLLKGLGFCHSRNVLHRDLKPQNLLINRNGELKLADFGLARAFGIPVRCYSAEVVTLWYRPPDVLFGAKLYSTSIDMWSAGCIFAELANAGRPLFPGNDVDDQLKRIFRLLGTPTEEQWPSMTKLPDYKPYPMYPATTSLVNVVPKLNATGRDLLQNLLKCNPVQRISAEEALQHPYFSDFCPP
T18 sequence (Q15078 2-307 partner limits assumed): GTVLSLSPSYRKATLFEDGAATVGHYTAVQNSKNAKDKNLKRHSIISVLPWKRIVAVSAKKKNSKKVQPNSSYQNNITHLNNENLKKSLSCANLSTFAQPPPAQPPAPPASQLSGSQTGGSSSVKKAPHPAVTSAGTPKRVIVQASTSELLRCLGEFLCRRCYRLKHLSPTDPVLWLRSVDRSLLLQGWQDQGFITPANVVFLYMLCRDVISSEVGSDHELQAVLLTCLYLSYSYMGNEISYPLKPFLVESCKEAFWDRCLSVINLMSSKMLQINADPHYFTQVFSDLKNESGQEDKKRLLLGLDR
T16 sequence (Q05513 whole entry): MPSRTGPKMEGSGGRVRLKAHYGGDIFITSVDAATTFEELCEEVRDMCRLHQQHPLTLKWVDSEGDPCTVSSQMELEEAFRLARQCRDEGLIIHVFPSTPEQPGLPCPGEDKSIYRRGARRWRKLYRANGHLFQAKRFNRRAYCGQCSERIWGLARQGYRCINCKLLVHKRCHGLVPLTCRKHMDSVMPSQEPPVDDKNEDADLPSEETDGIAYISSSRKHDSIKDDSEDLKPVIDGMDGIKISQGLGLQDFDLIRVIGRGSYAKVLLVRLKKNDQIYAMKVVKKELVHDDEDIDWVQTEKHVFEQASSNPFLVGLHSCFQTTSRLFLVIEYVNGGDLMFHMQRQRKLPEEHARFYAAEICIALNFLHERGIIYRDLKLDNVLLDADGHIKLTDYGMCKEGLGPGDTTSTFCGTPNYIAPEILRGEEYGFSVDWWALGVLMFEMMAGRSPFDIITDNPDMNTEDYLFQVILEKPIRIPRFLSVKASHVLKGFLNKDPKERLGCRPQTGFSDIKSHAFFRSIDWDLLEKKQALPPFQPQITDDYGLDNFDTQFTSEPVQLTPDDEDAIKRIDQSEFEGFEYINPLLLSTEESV
T27 sequence (O43318 1-303 limits assumed): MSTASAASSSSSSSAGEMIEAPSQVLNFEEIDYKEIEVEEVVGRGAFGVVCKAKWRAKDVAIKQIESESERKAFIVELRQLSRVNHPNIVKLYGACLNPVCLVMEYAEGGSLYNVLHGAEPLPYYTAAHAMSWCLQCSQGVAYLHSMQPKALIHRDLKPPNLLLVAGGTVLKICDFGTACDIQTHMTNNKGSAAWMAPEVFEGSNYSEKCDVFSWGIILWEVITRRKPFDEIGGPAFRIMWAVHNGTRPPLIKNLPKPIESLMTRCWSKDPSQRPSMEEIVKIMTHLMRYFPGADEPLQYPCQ
T12 sequence (Q13554 whole entry): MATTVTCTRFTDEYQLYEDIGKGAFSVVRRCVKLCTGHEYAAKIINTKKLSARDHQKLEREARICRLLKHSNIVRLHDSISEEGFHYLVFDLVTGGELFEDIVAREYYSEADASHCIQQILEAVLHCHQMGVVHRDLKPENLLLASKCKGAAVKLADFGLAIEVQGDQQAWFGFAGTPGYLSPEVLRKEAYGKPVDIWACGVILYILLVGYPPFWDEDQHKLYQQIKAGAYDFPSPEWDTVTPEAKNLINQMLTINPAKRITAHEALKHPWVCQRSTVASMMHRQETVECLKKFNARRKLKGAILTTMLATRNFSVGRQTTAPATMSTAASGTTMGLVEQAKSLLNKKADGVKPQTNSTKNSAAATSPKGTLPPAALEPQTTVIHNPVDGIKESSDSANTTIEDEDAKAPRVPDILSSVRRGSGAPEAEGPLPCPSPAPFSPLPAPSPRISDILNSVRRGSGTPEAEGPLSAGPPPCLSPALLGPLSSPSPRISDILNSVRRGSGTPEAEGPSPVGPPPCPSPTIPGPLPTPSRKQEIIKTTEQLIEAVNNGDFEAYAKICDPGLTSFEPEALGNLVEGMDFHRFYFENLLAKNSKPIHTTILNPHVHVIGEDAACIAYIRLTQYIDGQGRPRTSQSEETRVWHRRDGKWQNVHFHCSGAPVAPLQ
T35 sequence (P54762 18-984): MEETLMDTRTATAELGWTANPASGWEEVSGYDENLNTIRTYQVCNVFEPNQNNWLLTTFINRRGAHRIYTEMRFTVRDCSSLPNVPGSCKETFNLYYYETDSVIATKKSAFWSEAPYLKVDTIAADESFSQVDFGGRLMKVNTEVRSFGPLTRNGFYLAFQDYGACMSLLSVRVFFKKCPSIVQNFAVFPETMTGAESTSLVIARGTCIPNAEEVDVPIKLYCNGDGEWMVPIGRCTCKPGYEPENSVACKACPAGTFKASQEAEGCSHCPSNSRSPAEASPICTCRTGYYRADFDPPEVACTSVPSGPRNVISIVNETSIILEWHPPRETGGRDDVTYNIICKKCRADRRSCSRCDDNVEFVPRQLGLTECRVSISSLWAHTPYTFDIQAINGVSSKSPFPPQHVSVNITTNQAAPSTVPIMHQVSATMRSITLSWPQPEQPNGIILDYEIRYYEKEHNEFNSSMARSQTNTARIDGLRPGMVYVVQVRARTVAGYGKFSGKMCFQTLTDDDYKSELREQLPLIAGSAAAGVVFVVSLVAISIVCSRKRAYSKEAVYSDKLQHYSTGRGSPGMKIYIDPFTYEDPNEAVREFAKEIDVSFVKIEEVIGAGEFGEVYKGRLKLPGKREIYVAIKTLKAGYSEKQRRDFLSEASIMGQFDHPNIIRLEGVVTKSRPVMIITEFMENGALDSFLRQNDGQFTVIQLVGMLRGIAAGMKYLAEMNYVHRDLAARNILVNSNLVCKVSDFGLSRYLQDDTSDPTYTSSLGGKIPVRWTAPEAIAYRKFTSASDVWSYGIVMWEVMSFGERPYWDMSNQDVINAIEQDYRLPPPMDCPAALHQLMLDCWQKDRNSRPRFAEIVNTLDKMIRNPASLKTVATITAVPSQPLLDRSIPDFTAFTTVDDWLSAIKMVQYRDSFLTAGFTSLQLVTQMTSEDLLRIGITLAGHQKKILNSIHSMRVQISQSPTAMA
T15 sequence (Q9UEE5 whole entry): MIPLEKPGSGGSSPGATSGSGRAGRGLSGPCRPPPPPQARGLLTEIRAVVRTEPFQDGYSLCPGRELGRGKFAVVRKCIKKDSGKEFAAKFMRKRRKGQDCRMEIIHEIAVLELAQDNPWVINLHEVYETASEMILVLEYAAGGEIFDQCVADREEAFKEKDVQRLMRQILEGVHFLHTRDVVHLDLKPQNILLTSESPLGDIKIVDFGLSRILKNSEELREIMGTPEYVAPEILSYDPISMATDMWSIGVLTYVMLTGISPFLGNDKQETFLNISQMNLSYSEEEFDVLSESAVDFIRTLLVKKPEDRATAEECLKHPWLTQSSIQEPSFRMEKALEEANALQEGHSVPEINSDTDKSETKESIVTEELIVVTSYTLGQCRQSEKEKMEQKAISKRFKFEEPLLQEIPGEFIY
T25 sequence (P36896 24-505): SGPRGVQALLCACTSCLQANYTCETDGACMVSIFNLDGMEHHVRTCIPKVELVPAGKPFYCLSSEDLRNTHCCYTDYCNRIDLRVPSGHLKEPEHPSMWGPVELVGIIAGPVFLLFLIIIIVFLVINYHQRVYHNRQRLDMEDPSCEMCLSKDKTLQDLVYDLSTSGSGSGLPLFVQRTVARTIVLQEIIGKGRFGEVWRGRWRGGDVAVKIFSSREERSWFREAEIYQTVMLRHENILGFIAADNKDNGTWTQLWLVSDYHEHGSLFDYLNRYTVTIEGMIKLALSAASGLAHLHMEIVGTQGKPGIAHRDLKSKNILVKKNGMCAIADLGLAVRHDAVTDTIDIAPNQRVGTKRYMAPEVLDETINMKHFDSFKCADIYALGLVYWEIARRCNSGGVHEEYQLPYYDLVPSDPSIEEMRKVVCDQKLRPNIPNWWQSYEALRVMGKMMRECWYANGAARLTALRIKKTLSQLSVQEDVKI
T22 sequence (Q9BYT3 whole entry): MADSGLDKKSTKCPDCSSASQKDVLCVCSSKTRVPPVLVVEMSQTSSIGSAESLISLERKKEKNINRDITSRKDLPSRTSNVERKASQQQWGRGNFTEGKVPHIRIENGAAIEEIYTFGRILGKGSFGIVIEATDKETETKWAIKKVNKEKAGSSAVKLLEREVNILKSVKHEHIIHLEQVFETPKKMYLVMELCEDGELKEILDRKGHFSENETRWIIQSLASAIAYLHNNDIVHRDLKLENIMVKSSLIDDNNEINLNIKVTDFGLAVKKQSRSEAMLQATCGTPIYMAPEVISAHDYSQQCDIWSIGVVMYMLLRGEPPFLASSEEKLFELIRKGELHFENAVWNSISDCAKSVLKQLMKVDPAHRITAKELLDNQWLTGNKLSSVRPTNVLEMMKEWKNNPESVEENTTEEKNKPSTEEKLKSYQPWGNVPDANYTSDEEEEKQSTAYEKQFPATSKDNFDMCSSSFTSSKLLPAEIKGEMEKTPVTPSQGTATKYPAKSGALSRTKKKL

Structure (SMILES): COCc1ccc2cccc(NC(=O)Nc3c(C)c(-c4cnn(C)c4)nn3-c3ccccc3)c2c1 [Example 16, 1-(1′,4-dimethyl-1-phenyl-1H,1′H-[3,4′-bipyrazol]-5-yl)-3-(7-(methoxymethyl)naphthalen-1-yl)urea]
- Avg POC [1]: 109.5 POC
- Avg POC [2]: 97 POC
- Avg POC [3]: 106.5 POC
- Avg POC [4]: 106 POC
- Avg POC [5]: 115.5 POC
- Avg POC [6]: 111 POC
- Avg POC [7]: 98.5 POC
- Avg POC [8]: 98 POC
- Avg POC [9]: 117 POC
- Avg POC [10]: 126.5 POC
- Avg POC [11]: 148.5 POC
- Avg POC [12]: 105 POC
- Avg POC [13]: 120.5 POC
- Avg POC [14]: 136.5 POC
- Avg POC [15]: 136 POC
- Avg POC [16]: 123 POC
- Avg POC [17]: 114.5 POC
- Avg POC [18]: 123.5 POC
- Avg POC [19]: 121.5 POC
- Avg POC [20]: 120.5 POC
- Avg POC [21]: 128 POC
- Avg POC [22]: 106 POC
- Avg POC [23]: 112 POC
- Avg POC [24]: 112.5 POC
- Avg POC [25]: 104.5 POC
- Avg POC [26]: 112.5 POC
- Avg POC [27]: 110.5 POC
- Avg POC [28]: 109.5 POC
- Avg POC [29]: 119 POC
- Avg POC [30]: 109.5 POC
- Avg POC [31]: 119.5 POC
- Avg POC [32]: 134 POC
- Avg POC [33]: 129 POC
- Avg POC [34]: 159 POC
- Avg POC [35]: 122 POC
- Avg POC [36]: 114 POC
- Avg POC [37]: 145.5 POC
- Avg POC [38]: 117.5 POC
- Avg POC [39]: 117.5 POC
- Avg POC [40]: 116.5 POC
- Avg POC [41]: 97 POC
